From patent US11446287B2, “Compounds and methods for EP300 or CBP modulation and indications therefor” (Opna Immuno-Oncology SA, priority 2019, dated 2022)
pIC50: −log10 of the molar value.

Each molecule was assayed against T1, Recombinant human EP300 containing the bromodomain (EP300-BD (1040-1161)) (Homo sapiens, UniProt Q09472) (assay: EP300 Alphascreen binding assay).
T1 construct: Recombinant human EP300 bromodomain (EP300-BD (1040-1161)); made in house; host or cells: E. coli BL21-CodonPlus (DE3), modified pET vector
T1 sequence (Q09472 1040-1161): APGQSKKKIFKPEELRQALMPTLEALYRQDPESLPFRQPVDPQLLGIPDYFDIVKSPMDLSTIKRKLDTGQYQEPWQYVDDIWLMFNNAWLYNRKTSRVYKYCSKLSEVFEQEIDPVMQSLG
In short: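 Displacement of a biotinylated acetyl-K56 histone H3 peptide from the N-His bromodomain construct (1040-1161) measured by AlphaScreen proximity, beads at 7.5 μg/ml final, read 60 min after addition. Protein, peptide and compound first incubated 1 h at room temperature, pH 7.5 HEPES buffer; IC50 by four-parameter logistic fit.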
`Cc1noc(C)c1-c1cnc2c(-c3cnn(C)c3)c(C(F)(F)F)n([C@@H](C)c3ccccn3)c2c1` [P-0160, (S)-3,5-dimethyl-4-(3-(1-methyl-1H-pyrazol-4-yl)-1-(1-(pyridin-2-yl)ethyl)-2-(trifluoromethyl)-1H-pyrrolo[3,2-b]pyridin-6-yl)isoxazole] showed a pIC50 of 6.00 to 10.00.
`Cc1noc(C)c1-c1cnc2c(-c3cccc(CC(=O)O)c3)c(C(F)(F)F)n([C@@H](C)c3ccccn3)c2c1` [P-0161, (S)-2-(3-(6-(3,5-dimethylisoxazol-4-yl)-1-(1-(pyridin-2-yl)ethyl)-2-(trifluoromethyl)-1H-pyrrolo[3,2-b]pyridin-3-yl)phenyl)acetic acid] gave a pIC50 of 6.00 to 10.00.
In the case of `Cc1noc(C)c1-c1cnc2c(-c3cccc(C(=O)O)c3)c(C(F)(F)F)n([C@@H](C)c3ccccn3)c2c1` [P-0162, (S)-3-(6-(3,5-dimethylisoxazol-4-yl)-1-(1-(pyridin-2-yl)ethyl)-2-(trifluoromethyl)-1H-pyrrolo[3,2-b]pyridin-3-yl)benzoic acid], the pIC50 was 6.00 to 10.00.
With `Cc1noc(C)c1-c1cnc2c(C(O)(C3CC3)C3CC3)cn(-c3ccc(C(=O)O)cc3OC(F)(F)F)c2c1` [P-0163, 4-(3-(dicyclopropyl(hydroxy)methyl)-6-(3,5-dimethylisoxazol-4-yl)-1H-pyrrolo[3,2-b]pyridin-1-yl)-3-(trifluoromethoxy)benzoic acid] the pIC50 was 6.00 to 10.00.
`Cc1noc(C)c1-c1cnc2c(-c3cc(C(=O)O)ccc3Cl)cn(C(C)(c3ccccn3)c3ccccn3)c2c1` [P-0164, 4-chloro-3-(1-(1,1-di(pyridin-2-yl)ethyl)-6-(3,5-dimethylisoxazol-4-yl)-1H-pyrrolo[3,2-b]pyridin-3-yl)benzoic acid] gave a pIC50 of 6.00 to 10.00.
With `CCOc1cc(C(=O)O)cc(OCC)c1-n1cc(C(O)(C2CC2)C2CC2)c2ncc(-c3c(C)noc3C)cc21` [P-0165, 4-(3-(dicyclopropyl(hydroxy)methyl)-6-(3,5-dimethylisoxazol-4-yl)-1H-pyrrolo[3,2-b]pyridin-1-yl)-3,5-diethoxybenzoic acid] the pIC50 was 6.00 to 10.00.
`Cc1noc(C)c1-c1cnc2c(-c3cc(C(=O)O)ccc3C#N)cn(C(C)(c3ccccn3)c3ccccn3)c2c1` [P-0166, 4-cyano-3-(1-(1,1-di(pyridin-2-yl)ethyl)-6-(3,5-dimethylisoxazol-4-yl)-1H-pyrrolo[3,2-b]pyridin-3-yl)benzoic acid] was tested, and the pIC50 was 6.00 to 10.00.
For `C#Cc1ccccc1-c1cn(C(C)(c2ccccn2)c2ccccn2)c2cc(-c3c(C)noc3C)cnc12` [P-0167, 4-(1-(1,1-di(pyridin-2-yl)ethyl)-3-(2-ethynylphenyl)-1H-pyrrolo[3,2-b]pyridin-6-yl)-3,5-dimethylisoxazole], the pIC50 was 6.00 to 10.00.
`CCOc1cc(C(=O)O)cc(OCC)c1-n1cc(-c2ccccc2)c2ncc(-c3c(C)noc3C)cc21` [P-0168, 4-(6-(3,5-dimethylisoxazol-4-yl)-3-phenyl-1H-pyrrolo[3,2-b]pyridin-1-yl)-3,5-diethoxybenzoic acid] gave a pIC50 of 6.00 to 10.00.
In the case of `Cc1noc(C)c1-c1cnc2c(-c3ccccc3C#N)cn(C(C)(c3ccccn3)c3ccccn3)c2c1` [P-0169, 2-(1-(1,1-di(pyridin-2-yl)ethyl)-6-(3,5-dimethylisoxazol-4-yl)-1H-pyrrolo[3,2-b]pyridin-3-yl)benzonitrile], the pIC50 was 6.00 to 10.00.
